Reference: patent publication US9980943B2, “Methods of treating muscular dystrophy” (BOARD OF REGENTS OF THE NEVADA SYSTEM OF HIGHER EDUCATION, …, priority 2013, dated 2018)

Columns and labels:
Type in all cases: cell-based, mouse
[1] = tested on: β-galactosidase in CMV-LacZ C2C12 myotubes; test: CMV-LacZ secondary screen in C2C12 myotubes (β-Gal stabilizing assay); conditions: for CMV-LACZ in Myotubes, signal relative to DMSO: C2C12 CMV-LacZ myotubes, fold relative to DMSO; for CMV-LACZ in Myotubes, value relative to DMSO: SU9516 analogs, C2C12 CMV-LacZ, N=2
Method in brief: (§1)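 Dose-response runs at 0.5–40 μM (0.5, 1, 5, 10, 20, 40 μM; N=2 per point) used a clonal C2C12 line carrying CMV-LacZ. Cells were assayed as myoblasts or as differentiated myotubes, and β-galactosidase levels were read with the FDG fluorogenic substrate.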

[2] = tested on: α7 integrin (LacZ reporter in α7βgal+/− myoblasts); test: Myoblast α7+/LacZ integrin FDG assay (Burkin assay in myoblasts, 96-well); conditions: 96-well; for Burkin Assay in Myoblasts, signal relative to DMSO: α7+/LacZ myoblasts; for Burkin Assay in Myoblasts, value relative to DMSO: SU9516 analogs, N=3-6
[3] = tested on: β-galactosidase in CMV-LacZ C2C12 myoblasts; test: CMV-LacZ secondary screen in C2C12 myoblasts (β-Gal stabilizing assay); conditions: for CMV-LACZ in Myoblasts (β-galactosidase activity relative to DMSO): CMV-LacZ C2C12 myoblasts; for CMV-LACZ in Myoblasts, value relative to DMSO: SU9516 analogs, C2C12 CMV-LacZ, N=2
Method in brief: as §1

[4] = tested on: α7 integrin (LacZ reporter in α7+/LacZ myotubes); test: Myotube α7 integrin FDG assay (Burkin assay in myotubes, 96-well); conditions: for Burkin Assay in Myotubes, value relative to DMSO: SU9516 analogs, 96-well, N=3-6

COc1ccc(N=Nc2ccc(N)nc2N)cc1 [MLS000736846-01]
CMV-LACZ in Myotubes, signal relative to DMSO ([1]; 0.5 uM): 0.8438
CMV-LACZ in Myotubes, signal relative to DMSO ([1]; 1 uM): 0.9714
CMV-LACZ in Myotubes, signal relative to DMSO ([1]; 5 uM): 1.0250
CMV-LACZ in Myotubes, signal relative to DMSO ([1]; 10 uM): 1.1737
CMV-LACZ in Myotubes, signal relative to DMSO ([1]; 20 uM): 1.1000
CMV-LACZ in Myotubes, signal relative to DMSO ([1]; 40 uM): 1.2788
Burkin Assay in Myoblasts, signal relative to DMSO ([2]; 0.5 uM): 1.218
Burkin Assay in Myoblasts, signal relative to DMSO ([2]; 1 uM): 1.2858
Burkin Assay in Myoblasts, signal relative to DMSO ([2]; 5 uM): 1.07
Burkin Assay in Myoblasts, signal relative to DMSO ([2]; 10 uM): 1.012
Burkin Assay in Myoblasts, signal relative to DMSO ([2]; 20 uM): 1.0406
Burkin Assay in Myoblasts, signal relative to DMSO ([2]; 40 uM): 0.9563
CMV-LACZ in Myoblasts (β-galactosidase activity relative to DMSO) ([3]; 0.5 uM): 1.1009
CMV-LACZ in Myoblasts (β-galactosidase activity relative to DMSO) ([3]; 1 uM): 1.0386
CMV-LACZ in Myoblasts (β-galactosidase activity relative to DMSO) ([3]; 5 uM): 1.0269
CMV-LACZ in Myoblasts (β-galactosidase activity relative to DMSO) ([3]; 10 uM): 1.1101
CMV-LACZ in Myoblasts (β-galactosidase activity relative to DMSO) ([3]; 20 uM): 1.3459
CMV-LACZ in Myoblasts (β-galactosidase activity relative to DMSO) ([3]; 40 uM): 1.0174
Burkin Assay in Myotubes, α7 integrin LacZ reporter signal relative to DMSO ([4]; 0.5 uM): 1.131
Burkin Assay in Myotubes, α7 integrin LacZ reporter signal relative to DMSO ([4]; 1 uM): 1.144
Burkin Assay in Myotubes, α7 integrin LacZ reporter signal relative to DMSO ([4]; 5 uM): 1.004
Burkin Assay in Myotubes, α7 integrin LacZ reporter signal relative to DMSO ([4]; 10 uM): 0.9396
Burkin Assay in Myotubes, α7 integrin LacZ reporter signal relative to DMSO ([4]; 20 uM): 0.8776
Burkin Assay in Myotubes, α7 integrin LacZ reporter signal relative to DMSO ([4]; 40 uM): 0.9673

CN1C(=O)N(CC(=O)N2CCN(S(=O)(=O)c3ccc(Cl)s3)CC2)C(=O)C12CCCCC2 [MLS002162890-01]
CMV-LACZ in Myotubes, signal relative to DMSO ([1]; 0.5 uM): 1.0682
CMV-LACZ in Myotubes, signal relative to DMSO ([1]; 1 uM): 1.0191
CMV-LACZ in Myotubes, signal relative to DMSO ([1]; 5 uM): 1.1237
CMV-LACZ in Myotubes, signal relative to DMSO ([1]; 10 uM): 1.0530
CMV-LACZ in Myotubes, signal relative to DMSO ([1]; 20 uM): 1.0140
CMV-LACZ in Myotubes, signal relative to DMSO ([1]; 40 uM): 1.0170
Burkin Assay in Myoblasts, signal relative to DMSO ([2]; 0.5 uM): 1.107
Burkin Assay in Myoblasts, signal relative to DMSO ([2]; 1 uM): 1.034
Burkin Assay in Myoblasts, signal relative to DMSO ([2]; 5 uM): 1.1338
Burkin Assay in Myoblasts, signal relative to DMSO ([2]; 10 uM): 1.261
Burkin Assay in Myoblasts, signal relative to DMSO ([2]; 20 uM): 0.694
Burkin Assay in Myoblasts, signal relative to DMSO ([2]; 40 uM): 0.4924
CMV-LACZ in Myoblasts (β-galactosidase activity relative to DMSO) ([3]; 0.5 uM): 0.8392
CMV-LACZ in Myoblasts (β-galactosidase activity relative to DMSO) ([3]; 1 uM): 0.8713
CMV-LACZ in Myoblasts (β-galactosidase activity relative to DMSO) ([3]; 5 uM): 0.9701
CMV-LACZ in Myoblasts (β-galactosidase activity relative to DMSO) ([3]; 10 uM): 0.9939
CMV-LACZ in Myoblasts (β-galactosidase activity relative to DMSO) ([3]; 20 uM): 0.7603
CMV-LACZ in Myoblasts (β-galactosidase activity relative to DMSO) ([3]; 40 uM): 0.9507
Burkin Assay in Myotubes, α7 integrin LacZ reporter signal relative to DMSO ([4]; 0.5 uM): 1.051
Burkin Assay in Myotubes, α7 integrin LacZ reporter signal relative to DMSO ([4]; 1 uM): 1.185
Burkin Assay in Myotubes, α7 integrin LacZ reporter signal relative to DMSO ([4]; 5 uM): 0.9351
Burkin Assay in Myotubes, α7 integrin LacZ reporter signal relative to DMSO ([4]; 10 uM): 1.1501
Burkin Assay in Myotubes, α7 integrin LacZ reporter signal relative to DMSO ([4]; 20 uM): 0.7452
Burkin Assay in Myotubes, α7 integrin LacZ reporter signal relative to DMSO ([4]; 40 uM): 0.803

Fc1ccc(-c2ccnc3nc(N4CCN(c5ccccc5)CC4)nn23)cc1 [MLS000546316-01]
CMV-LACZ in Myotubes, signal relative to DMSO ([1]; 0.5 uM): 1.2590
CMV-LACZ in Myotubes, signal relative to DMSO ([1]; 1 uM): 1.0019
CMV-LACZ in Myotubes, signal relative to DMSO ([1]; 5 uM): 1.0040
CMV-LACZ in Myotubes, signal relative to DMSO ([1]; 10 uM): 1.0825
CMV-LACZ in Myotubes, signal relative to DMSO ([1]; 20 uM): 1.0190
CMV-LACZ in Myotubes, signal relative to DMSO ([1]; 40 uM): 1.2640
Burkin Assay in Myoblasts, signal relative to DMSO ([2]; 0.5 uM): 1.159
Burkin Assay in Myoblasts, signal relative to DMSO ([2]; 1 uM): 1.223
Burkin Assay in Myoblasts, signal relative to DMSO ([2]; 5 uM): 1.164
Burkin Assay in Myoblasts, signal relative to DMSO ([2]; 10 uM): 1.123
Burkin Assay in Myoblasts, signal relative to DMSO ([2]; 20 uM): 1.026
Burkin Assay in Myoblasts, signal relative to DMSO ([2]; 40 uM): 1.027
CMV-LACZ in Myoblasts (β-galactosidase activity relative to DMSO) ([3]; 0.5 uM): 1.0623
CMV-LACZ in Myoblasts (β-galactosidase activity relative to DMSO) ([3]; 1 uM): 1.1373
CMV-LACZ in Myoblasts (β-galactosidase activity relative to DMSO) ([3]; 5 uM): 0.8090
CMV-LACZ in Myoblasts (β-galactosidase activity relative to DMSO) ([3]; 10 uM): 1.2440
CMV-LACZ in Myoblasts (β-galactosidase activity relative to DMSO) ([3]; 20 uM): 1.3463
CMV-LACZ in Myoblasts (β-galactosidase activity relative to DMSO) ([3]; 40 uM): 1.5049
Burkin Assay in Myotubes, α7 integrin LacZ reporter signal relative to DMSO ([4]; 0.5 uM): 1.137
Burkin Assay in Myotubes, α7 integrin LacZ reporter signal relative to DMSO ([4]; 1 uM): 1.174
Burkin Assay in Myotubes, α7 integrin LacZ reporter signal relative to DMSO ([4]; 5 uM): 1.066
Burkin Assay in Myotubes, α7 integrin LacZ reporter signal relative to DMSO ([4]; 10 uM): 1.099
Burkin Assay in Myotubes, α7 integrin LacZ reporter signal relative to DMSO ([4]; 20 uM): 0.8571
Burkin Assay in Myotubes, α7 integrin LacZ reporter signal relative to DMSO ([4]; 40 uM): 1.176

Cc1ccccc1NC(=O)NCCCN1CCN(C)CC1 [MLS001197665-01]
CMV-LACZ in Myotubes, signal relative to DMSO ([1]; 0.5 uM): 0.9415
CMV-LACZ in Myotubes, signal relative to DMSO ([1]; 1 uM): 0.8756
CMV-LACZ in Myotubes, signal relative to DMSO ([1]; 5 uM): 0.9771
CMV-LACZ in Myotubes, signal relative to DMSO ([1]; 10 uM): 1.2593
CMV-LACZ in Myotubes, signal relative to DMSO ([1]; 20 uM): 1.0047
CMV-LACZ in Myotubes, signal relative to DMSO ([1]; 40 uM): 1.0741
Burkin Assay in Myoblasts, signal relative to DMSO ([2]; 0.5 uM): 1.062
Burkin Assay in Myoblasts, signal relative to DMSO ([2]; 1 uM): 1.069
Burkin Assay in Myoblasts, signal relative to DMSO ([2]; 5 uM): 1.015
Burkin Assay in Myoblasts, signal relative to DMSO ([2]; 10 uM): 0.9523
Burkin Assay in Myoblasts, signal relative to DMSO ([2]; 20 uM): 1.094
Burkin Assay in Myoblasts, signal relative to DMSO ([2]; 40 uM): 1.189
CMV-LACZ in Myoblasts (β-galactosidase activity relative to DMSO) ([3]; 0.5 uM): 0.8584
CMV-LACZ in Myoblasts (β-galactosidase activity relative to DMSO) ([3]; 1 uM): 0.8347
CMV-LACZ in Myoblasts (β-galactosidase activity relative to DMSO) ([3]; 5 uM): 0.9214
CMV-LACZ in Myoblasts (β-galactosidase activity relative to DMSO) ([3]; 10 uM): 0.8403
CMV-LACZ in Myoblasts (β-galactosidase activity relative to DMSO) ([3]; 20 uM): 0.9556
CMV-LACZ in Myoblasts (β-galactosidase activity relative to DMSO) ([3]; 40 uM): 1.0267
Burkin Assay in Myotubes, α7 integrin LacZ reporter signal relative to DMSO ([4]; 0.5 uM): 1.115
Burkin Assay in Myotubes, α7 integrin LacZ reporter signal relative to DMSO ([4]; 1 uM): 1.068
Burkin Assay in Myotubes, α7 integrin LacZ reporter signal relative to DMSO ([4]; 5 uM): 0.973
Burkin Assay in Myotubes, α7 integrin LacZ reporter signal relative to DMSO ([4]; 10 uM): 0.999
Burkin Assay in Myotubes, α7 integrin LacZ reporter signal relative to DMSO ([4]; 20 uM): 1.001
Burkin Assay in Myotubes, α7 integrin LacZ reporter signal relative to DMSO ([4]; 40 uM): 0.9583

O=Nc1c(-c2c(O)[nH]c3cc(Br)ccc23)[nH]c2ccccc12 [NCGC00094112-04]
CMV-LACZ in Myotubes, value relative to DMSO ([1]; 0.5 uM): 1.0409
CMV-LACZ in Myotubes, value relative to DMSO ([1]; 1 uM): 0.8864
CMV-LACZ in Myotubes, value relative to DMSO ([1]; 5 uM): 0.8123
CMV-LACZ in Myotubes, value relative to DMSO ([1]; 10 uM): 0.7933
CMV-LACZ in Myotubes, value relative to DMSO ([1]; 20 uM): 0.7190
CMV-LACZ in Myotubes, value relative to DMSO ([1]; 40 uM): 0.5420
Burkin Assay in Myoblasts, value relative to DMSO ([2]; 0.5 uM): 1.019
Burkin Assay in Myoblasts, value relative to DMSO ([2]; 1 uM): 0.9927
Burkin Assay in Myoblasts, value relative to DMSO ([2]; 5 uM): 0.5722
Burkin Assay in Myoblasts, value relative to DMSO ([2]; 10 uM): 0.4943
Burkin Assay in Myoblasts, value relative to DMSO ([2]; 20 uM): 0.4509
Burkin Assay in Myoblasts, value relative to DMSO ([2]; 40 uM): 0.3428
CMV-LACZ in Myoblasts, value relative to DMSO ([3]; 0.5 uM): 1.1721
CMV-LACZ in Myoblasts, value relative to DMSO ([3]; 1 uM): 1.1779
CMV-LACZ in Myoblasts, value relative to DMSO ([3]; 5 uM): 1.0309
CMV-LACZ in Myoblasts, value relative to DMSO ([3]; 10 uM): 1.0782
CMV-LACZ in Myoblasts, value relative to DMSO ([3]; 20 uM): 0.4403
CMV-LACZ in Myoblasts, value relative to DMSO ([3]; 40 uM): 0.3627
Burkin Assay in Myotubes, value relative to DMSO ([4]; 0.5 uM): 0.7402
Burkin Assay in Myotubes, value relative to DMSO ([4]; 1 uM): 0.8159
Burkin Assay in Myotubes, value relative to DMSO ([4]; 5 uM): 0.7596
Burkin Assay in Myotubes, value relative to DMSO ([4]; 10 uM): 0.629
Burkin Assay in Myotubes, value relative to DMSO ([4]; 20 uM): 0.6813
Burkin Assay in Myotubes, value relative to DMSO ([4]; 40 uM): 0.35
